The experiment deals with GTPase HRas (Homo sapiens) (UniProt P01112). The experiment in a line: activated H-Ras mutant GTP-binding inhibitors, SAR follow-up, biochemical, multiplex bead flow cytometry, round 2 (AID 588628). To be noted: bead-based flow cytometry, Bodipy-FL-GTP binding, EDTA; for % response (binding remaining): at 100 µM (top of the series).

Experimental findings from PubChem BioAssay AID588628 (NMMLSC, 2011) are described below.

“And” between values parts separate entries of the source, which are not always exact repeats. Identical values can stand only once. The source made the active and inactive calls.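 Rule for the calls: active = fitted EC50 of 10 µM or less with% response changing by at least 30 points across doses; inactive = the rest.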

What is called EC50 is the concentration needed to bring the measured effect to its halfway point.

GTPase HRas (Homo sapiens), sequence (P01112 whole entry, looked up): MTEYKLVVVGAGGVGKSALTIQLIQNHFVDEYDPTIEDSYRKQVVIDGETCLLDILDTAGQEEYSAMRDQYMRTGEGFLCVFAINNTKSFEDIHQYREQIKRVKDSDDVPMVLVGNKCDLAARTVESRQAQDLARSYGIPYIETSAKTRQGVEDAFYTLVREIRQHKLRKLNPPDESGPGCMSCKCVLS

On to `CC1(C)Cc2c(sc(NC(=S)NC(=O)c3ccc(Br)cc3)c2C(=O)O)CO1`, for which the EC50 was 564 nM.
For the compound `COc1cccc(C(=O)NC(=S)Nc2sc3c(c2C(=O)O)CC(C)(C)OC3)c1`, the EC50 is 205 nM.
For the compound `CC1(C)Cc2c(sc(NC(=S)NC(=O)c3ccccc3Br)c2C(=O)O)CO1`, the EC50 is 1210 nM.
As to `CC1(C)Cc2c(sc(NC(=S)NC(=O)c3ccccc3)c2C(=O)O)CO1`, the EC50 is 21 nM.
Same read-out and setting: for `CC1(C)Cc2c(sc(NC(=O)NC(=O)c3ccccc3)c2C(=O)O)CO1` the value was 824 nM; for `CC1(C)Cc2c(sc(NC(=S)NC(=O)c3ccc(F)cc3)c2C(=O)O)CO1`, 91 nM.
For the compound `CC1(C)Cc2c(sc(NC(=S)Nc3ccccc3)c2C(=O)O)CO1`, the “% response (binding remaining)” value was “inactive”.
On to `Cc1ccc(C(=O)NC(=S)Nc2sc3c(c2C(=O)O)CC(C)(C)OC3)cc1`, for which the EC50 was 178 nM.
Same read-out and setting: the value for `CCC1(C)Cc2c(sc(NC(=S)NC(=O)c3ccccc3)c2C(=O)O)CO1` (centres undefined) was 35 nM; that for `CC(C)(C)C1Cc2c(sc(NC(=S)NC(=O)c3ccccc3)c2C(=O)O)CO1` (centres undefined) was 125 nM.
For the compound `CC1Cc2c(sc(NC(=S)NC(=O)c3ccccc3)c2C(=O)O)CO1` (centres undefined), the EC50 is 217 nM.
With `CC1(C)Cc2c(sc(NC(=S)NC(=O)c3cccs3)c2C(=O)O)CO1`, the EC50 is 24 nM.
Still for that read-out and setting: the value for `CC1(C)CCc2sc(NC(=S)NC(=O)c3ccccc3)c(C(=O)O)c2C1` was 53 nM; that for `CC1(C)Cc2c(sc(NC(=S)NC(=O)c3cccc(F)c3)c2C(=O)O)CO1` was 535 nM; that for `Cc1ccccc1C(=O)NC(=S)Nc1sc2c(c1C(=O)O)CC(C)(C)OC2` was 379 nM.
In the case of `CC1(C)Cc2c(sc(NC(=S)NC(=O)c3ccccc3F)c2C(=O)O)CO1`, the EC50 was 283 nM.
For `COc1ccc(C(=O)NC(=S)Nc2sc3c(c2C(=O)O)CC(C)(C)OC3)cc1`, the EC50 was 276 nM.
On to `CC1(C)Cc2c(sc(NC(=S)NC(=O)c3cccc(Br)c3)c2C(=O)O)CO1`, for which the “% response (binding remaining)” value is “inactive”.
`Cc1cccc(C(=O)NC(=S)Nc2sc3c(c2C(=O)O)CC(C)(C)OC3)c1`: the EC50 was 854 nM.
In the case of `O=C(NC(=S)Nc1sc2c(c1C(=O)O)CCOC2)c1ccccc1`, the EC50 was 85 nM and 207 nM.
Still for that read-out and setting: the value for `CC1(C)Cc2c(sc(NC(=S)NC(=O)C3CCCCC3)c2C(=O)O)CO1` was 585 nM.
With `COc1ccccc1C(=O)NC(=S)Nc1sc2c(c1C(=O)O)CC(C)(C)OC2`, the “% response (binding remaining)” value was “inactive”.
As for `CC1(C)Cc2c(sc(NC(=S)NC(=O)c3ccco3)c2C(=O)O)CO1`, the EC50 is 65 nM.
Take `O=C(NC(=S)Nc1sc2c(c1C(=O)O)CC1(CCCC1)OC2)c1ccccc1`: the EC50 was 33 nM.
